Where “and” joins values, the source holds several entries; their conditions need not be identical. Equal values may be shown once.
Work on `CCn1cnc2c(Nc3cccc(Cl)c3)nc(N(C)C(N)=O)nc21` [Example 53, 2-[carbamoyl-methyl-amino]-6-(3-chloro-phenyl-amino)-9-ethyl-9H-purine] yielded a melting point greater than 220 °C.
`CCn1cnc2c(Nc3cccc(Cl)c3)nc(N3CCC[C@@H]3C(N)=O)nc21` [Example 45, 2-[(R)-(−)-2-carbamoyl-pyrrolidin-1-yl]-6-(3-chloro-phenyl-amino)-9-ethyl-9H-purine] showed a melting point greater than 230 °C.
`CC(C)n1cnc2c(Nc3cccc(F)c3)nc(NCCN)nc21` [Example 91, 2-(2-Amino-ethyl-amino)-6-(3-fluoro-phenyl-amino)-9-isopropyl-9H-purine] gave a melting point greater than 250 °C.
For `CCn1cnc2c(Nc3cccc(C(F)(F)F)c3)nc(NCCN)nc21` [Example 95, 2-(2-amino-ethyl-amino)-9-ethyl-6-(3-trifluoromethyl-phenyl-amino)-9H-purine], the melting point was greater than 250 °C.
Compound `CCn1cnc2c(Nc3cccc(Cl)c3)nc(N3CCC[C@H]3C(N)=O)nc21` [Example 64, 2-[(S)-2-carbamoyl-pyrrolidin-1-yl]-6-(3-chloro-phenyl-amino)-9-ethyl-9H-purine] has a melting point greater than 240 °C.
In the case of `CCn1cnc2c(Nc3cccc(C(F)(F)F)c3)nc(NCCCO)nc21` [Example 24, 9-Ethyl-2-(3-hydroxy-propyl-amino)-6-(3-trifluoromethyl-phenyl-amino)-9H-purine], the melting point is reported as 136 °C and 136 to 137 °C.

Point of comparison: `CCn1cnc2c(Nc3ccc(Cl)c(C(F)(F)F)c3)nc(NCCO)nc21` [Example 106, 6-(4-chloro-3-trifluoromethyl-phenyl-amino)-9-ethyl-2-(2-hydroxy-ethyl-amino)-9H-purine], melting point 194 °C. Against it:
- CCn1cnc2c(Nc3cccc(Cl)c3)nc(N3CCNCC3)nc21 [Example 23, 6-(3-chloro-phenylamino)-9-ethyl-2-piperazino-9H-purine] — lower, 181.5 to 182.5 °C
- CCn1cnc2c(Nc3cccc(Cl)c3)nc(NC[C@@H](C)O)nc21 [Example 88, 6-(3-chloro-phenyl-amino)-9-ethyl-2-[(R)-2-hydroxy-propylamino]-9H-purine] — lower, 161 °C
- CCn1cnc2c(Nc3cccc(Cl)c3)nc(N3CCCC(NC=O)C3)nc21 (centres unmarked) [Example 48, 6-(3-chloro-phenyl-amino)-9-ethyl-2-(3-formylamino-piperidin-1-yl)-9H-purine] — lower, 184.3 °C
- CCn1cnc2c(Nc3cccc(Cl)c3)nc(N3CCC(CCN)CC3)nc21 [Example 18, 2-[4-(2-amino-ethyl)-piperidin-1-yl]-6-(3-chloro-phenyl-amino)-9-ethyl-9H-purine] — lower, 182 to 184 °C
- CCn1cnc2c(Nc3cccc(Cl)c3)nc(N[C@@H](C)C(N)=O)nc21 [Example 49, 2-[(S)-1-carbamoyl-ethylamino]-6-(3-chloro-phenyl-amino)-9-ethyl-9H-purine] — lower, 117 to 121 °C
- COc1cccc(Nc2nc(NN)nc3c2ncn3C(C)C)c1.Cl — higher, 250 °C
- CCn1cnc2c(Nc3ccc(F)cc3)nc(NCCO)nc21 [Example 99, 9-ethyl-6-(4-fluoro-phenyl-amino)-2-(2-hydroxy-ethyl-amino)-9H-purine] — lower, 152 °C
- CCn1cnc2c(Nc3cccc(Cl)c3)nc(N3CCC[C@H]3CO)nc21 [Example 40, 6-(3-chloro-phenyl-amino)-9-ethyl-2-[(S)-2-hydroxymethyl-pyrrolidin-1-yl]-9H-purine] — lower, 169 °C
- COc1cccc(Nc2nc(NCCCO)nc3c2ncn3CCO)c1 [Example 28, 9-(2-hydroxy-ethyl)-2-(3-hydroxy-propyl-amino)-6-(3-methoxy-phenyl-amino)-9H-purine] — lower, 132 to 133 °C
- CCn1cnc2c(Nc3cccc(Cl)c3)nc(NCCc3ccccc3)nc21 [Example 11, 2-(2-phenyl-ethyl-amino)-6-(3-chloro-phenyl-amino)-9-ethyl-9H-purine] — lower, 151 to 152 °C
- CCn1cnc2c(Nc3cccc(Cl)c3)nc(NCC3CCCO3)nc21 (centres unmarked) [Example 15, 2-(tetrahydrofurfuryl-amino)-6-(3-chloro-phenyl-amino)-9-ethyl-9H-purine] — lower, 84 to 86 °C
- CCn1cnc2c(Nc3cccc(Cl)c3)nc(NCC(C)N)nc21 (centres unmarked) [Example 47, 2-(2-amino-propyl-amino)-6-(3-chloro-phenyl-amino)-9-ethyl-9H-purine] — lower, 119 to 120 °C
- CCn1cnc2c(Nc3cccc(Cl)c3)nc(N3CCC[C@@H]3CN)nc21 [Example 46, 2-[(R)-2-Aminomethyl-pyrrolidin-1-yl]-6-(3-chloro-phenyl-amino)-9-ethyl-9H-purine] — lower, 126 to 129 °C
- CCn1cnc2c(Nc3cccc(Cl)c3)nc(NCC(C)(C)N)nc21.Cl — higher, 196 °C
- CCn1cnc2c(Nc3cccc(Cl)c3)nc(NC3CCCCC3)nc21 [Example 85, 6-(3-chloro-phenyl-amino)-2-cyclohexylamino-9-ethyl-9H-purine] — lower, 143 °C
- CCn1cnc2c(Nc3cccc(F)c3)nc(NCCO)nc21 [Example 92, 2-(2-hydroxy-ethyl-amino)-6-(3-fluoro-phenyl-amino)-9-ethyl-9H-purine] — lower, 184 °C
- CCn1cnc2c(Nc3cccc(Cl)c3)nc(Nc3cccc(N)c3)nc21 [Example 42, 2-[3-amino-phenylamino]-6-(3-chloro-phenyl-amino)-9-ethyl-9H-purine] — higher, 205 °C
- CCn1cnc2c(Nc3cccc(Cl)c3)nc(N[C@H]3CC[C@H](O)CC3)nc21 [Example 65, 6-(3-chloro-phenyl-amino)-9-ethyl-2-(trans-4-hydroxy-cyclohexyl-amino)-9H-purine] — lower, 116.5 °C
- CCn1cnc2c(Nc3cccc(Cl)c3)nc(N(CCO)C3CCCCC3)nc21 [Example 62, 6-(3-chloro-phenyl-amino)-2-[N-cyclohexyl-N-(2-hydroxy-ethyl)-amino]-9-ethyl-9H-purine] — lower, 125 to 128 °C
- CC(C)n1cnc2c(Nc3ccc(F)cc3)nc(NCCO)nc21 [Example 96, 6-(4-fluoro-phenyl-amino)-2-(2-hydroxy-ethyl-amino)-9-isopropyl-9H-purine] — lower, 139 °C
- COc1cccc(Nc2nc(NCCN)nc3c2ncn3C(C)C)c1 [Example 101, 2-(2-amino-ethyl-amino)-9-isopropyl-6-(3-methoxy-phenyl-amino)-9H-purine] — lower, 181 °C
- CCn1cnc2c(Nc3ccc(C(F)(F)F)cc3)nc(NCCO)nc21 [Example 104, 9-Ethyl-2-(2-hydroxy-ethyl-amino)-6-(4-trifluoromethyl-phenyl-amino)-9H-purine] — lower, 191 to 192 °C
- CCn1cnc2c(Nc3cccc(Cl)c3)nc(NCCc3c[nH]c4ccccc34)nc21 [Example 20, 2-[2-(3-indolyl)-ethyl-amino]-6-(3-chloro-phenyl-amino)-9-ethyl-9H-purine] — lower, 106 to 108 °C
- CCn1cnc2c(Nc3cccc(Cl)c3)nc(N3CCC(O)CC3)nc21 [Example 72, 6-(3-chloro-phenyl-amino)-9-ethyl-2-(4-hydroxy-piperidino)-9H-purine] — higher, 198.7 °C
- CCn1cnc2c(Nc3cccc(Cl)c3)nc(N(CCO)CCO)nc21 [Example 2, 6-(3-chloro-phenylamino)-2-(di-[2-hydroxy-ethyl]-amino)-9-ethyl-9H-purine] — lower, 148 to 149 °C

— US7091346B1, “Purine derivatives and processes for their preparation” (Novartis AG, priority 1995, dated 2006)
